Test results: the supplement of paper PMC10307832

How the values were obtained:
Assay in all cases: relative viability (nuclei count vs DMSO), 5 days (fraction); higher = more cells survive
Hydroxychloroquine = compound: CCN(CCO)CCCC(C)Nc1ccnc2cc(Cl)ccc12 [Hydroxychloroquine]
In short: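 Viability is treated-well nuclei as a fraction of vehicle-well nuclei, reported as the median across plates. Before counting, lung cancer cell lines were kept overnight at 37 °C in 1536-well plates, pinned with five √10-spaced library-drug doses on vehicle-anchored plates, and left 5 days without medium change, then fixed, permeabilised and Hoechst-stained in one step, imaged at 4× and counted by MetaXpress. A plate passed only if control CV was below 25% and at least one doubling occurred.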

[1] = compound: CCN(CCO)CCCC(C)Nc1ccnc2cc(Cl)ccc12 [Hydroxychloroquine] + Cc1cc(Nc2cc(N3CCN(C)CC3)nc(Sc3ccc(NC(=O)C4CC4)cc3)n2)n[nH]1 [Tozasertib] (partner 0.1 µM)
In short: (§1)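 Dosing by pin tool came one day after lung cancer cell lines were seeded in 1536-well plates, using either one drug or a fixed anchor-drug dose plus five library-drug doses (not always all listed) in √10 steps. After 5 days, nuclei were counted on 4× images. Relative viability is treated-well nuclei count divided by vehicle-well nuclei count, and values are medians of duplicate plates.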

[2] = compound: CCN(CCO)CCCC(C)Nc1ccnc2cc(Cl)ccc12 [Hydroxychloroquine] + CC(=O)Nc1cccc(-n2c(=O)n(C3CC3)c(=O)c3c(Nc4ccc(I)cc4F)n(C)c(=O)c(C)c32)c1 [Trametinib] (partner 0.02 µM)
In short: as §1

[3] = compound: CCN(CCO)CCCC(C)Nc1ccnc2cc(Cl)ccc12 [Hydroxychloroquine] + NC(=O)Nc1cc(-c2cccc(F)c2)sc1C(=O)N[C@H]1CCCNC1 [AZD7762] (partner 0.2 µM)
In short: as §1

| Cell Line | relative viability (Hydroxychloroquine; 0.5 µM) | relative viability (Hydroxychloroquine; 1.581 µM) | relative viability (Hydroxychloroquine; 5 µM) | relative viability (Hydroxychloroquine; 15.81 µM) | relative viability (Hydroxychloroquine; 50 µM) | relative viability ([1]; first compound 0.5 µM) | relative viability ([1]; first compound 1.581 µM) | relative viability ([1]; first compound 5 µM) | relative viability ([1]; first compound 15.81 µM) | relative viability ([1]; first compound 50 µM) | relative viability ([2]; first compound 0.5 µM) | relative viability ([2]; first compound 1.581 µM) | relative viability ([2]; first compound 5 µM) | relative viability ([2]; first compound 15.81 µM) | relative viability ([2]; first compound 50 µM) | relative viability ([3]; first compound 0.5 µM) | relative viability ([3]; first compound 1.581 µM) | relative viability ([3]; first compound 5 µM) | relative viability ([3]; first compound 15.81 µM) | relative viability ([3]; first compound 50 µM) |
| --- | --- | --- | --- | --- | --- | --- | --- | --- | --- | --- | --- | --- | --- | --- | --- | --- | --- | --- | --- | --- |
| NCI-H2087 | 0.971 | 0.923 | 1 | 1.06 | 0.98 | 0.265 | 0.22 | 0.317 | 0.261 | 0.284 | 0.202 | 0.234 | 0.187 | 0.193 | 0.238 | 1.33 | 1.19 | 1.46 | 1.32 | 1.48 |
| NCI-H2228 | 1.05 | 0.959 | 0.945 | 1.11 | 1.08 | 0.281 | 0.201 | 0.285 | 0.259 | 0.321 | 0.322 | 0.421 | 0.654 | 0.584 | 0.365 |  |  |  |  |  |
| NCI-H838 | 1.02 | 0.958 | 0.984 | 0.975 | 1.12 | 0.234 | 0.241 | 0.23 | 0.281 | 0.281 | 0.566 | 0.458 | 0.552 | 0.519 | 0.606 | 0.963 | 0.943 | 0.916 | 0.968 | 1.03 |
| NCI-H661 | 0.966 | 0.93 | 0.921 | 0.976 | 0.994 | 0.358 | 0.32 | 0.355 | 0.397 | 0.349 | 0.549 | 0.522 | 0.593 | 0.596 | 0.577 |  |  |  |  |  |
| NCI-H596 | 1.04 | 0.934 | 0.892 | 1.03 | 1.15 | 1.16 | 0.994 | 0.858 | 0.865 | 0.987 | 0.652 | 0.926 | 0.769 | 0.797 | 0.795 | 0.924 | 0.902 | 1.14 | 1.11 | 1.05 |
| EBC-1 | 1.01 | 0.897 | 1.05 | 0.973 | 1.13 |  |  |  |  |  |  |  |  |  |  |  |  |  |  |  |
| NCI-H727 | 1.04 | 0.815 | 1.04 | 0.898 | 0.911 | 0.646 | 0.509 | 0.597 | 0.561 | 0.593 | 0.369 | 0.361 | 0.396 | 0.405 | 0.382 | 0.845 | 0.698 | 0.655 | 0.599 | 0.523 |
| NCI-H1299 | 1.02 | 0.938 | 1.01 | 1.02 | 1.02 |  |  |  |  |  |  |  |  |  |  |  |  |  |  |  |
| LK-2 | 1.01 | 0.96 | 0.941 | 1.14 | 1.24 | 0.176 | 0.167 |  | 0.176 | 0.154 | 0.864 | 0.599 | 0.707 | 0.876 | 1.01 | 0.424 | 0.334 | 0.447 | 0.411 | 0.312 |
| SW 1573 | 0.918 | 0.832 | 0.983 | 1.07 | 1.02 | 0.217 | 0.203 | 0.167 | 0.188 | 0.147 | 0.617 | 0.595 | 0.55 | 0.625 | 0.499 |  |  |  |  |  |
| COR-L23 | 1.06 | 1.17 | 1.16 | 1.08 | 1.03 | 0.191 | 0.218 | 0.267 | 0.209 | 0.225 | 0.602 | 0.582 | 0.616 | 0.767 | 0.712 |  |  |  |  |  |
| NCI-H1650 | 0.956 | 1.08 | 0.857 | 0.806 | 0.903 | 0.466 | 0.318 | 0.483 | 0.419 | 0.346 | 0.556 | 0.681 | 0.515 | 0.591 | 0.494 |  |  |  |  |  |
| SK-LU-1 | 1.19 | 0.983 | 0.949 | 1.03 | 1.08 | 0.367 | 0.339 | 0.325 | 0.342 | 0.323 | 0.454 | 0.374 | 0.508 | 0.462 | 0.404 |  |  |  |  |  |
| IA-LM | 0.922 | 0.971 | 0.902 | 0.962 | 0.959 |  |  |  |  |  |  |  |  |  |  |  |  |  |  |  |
| NCI-H2009 | 0.979 | 1.04 | 1.06 | 0.994 | 1.07 | 0.819 | 0.745 | 0.784 | 0.739 | 0.726 | 0.308 | 0.247 | 0.328 | 0.272 | 0.259 |  |  |  |  |  |
| NCI-H1563 | 0.946 | 0.744 | 0.912 | 0.99 | 0.966 |  |  |  |  |  |  |  |  |  |  |  |  |  |  |  |
| SK-MES-1 | 1.06 | 0.959 | 1.07 | 1.05 | 0.995 | 1.06 | 0.943 | 1.02 | 1.02 | 0.94 | 0.558 | 0.52 | 0.538 | 0.559 | 0.553 |  |  |  |  |  |
| ABC-1 | 0.89 | 0.854 | 0.856 | 0.885 | 0.91 | 0.162 | 0.136 | 0.166 | 0.172 | 0.165 |  |  |  |  |  | 0.754 | 0.917 | 0.797 | 0.995 | 0.711 |
| UMC-11 | 0.988 | 0.849 | 1.01 | 1.05 | 1.12 | 0.191 | 0.188 | 0.217 | 0.393 | 0.196 | 0.642 | 0.431 | 0.762 | 0.669 | 0.741 |  |  |  |  |  |
| NCI-H1792 | 0.945 | 1.03 | 0.859 | 0.783 | 0.776 |  |  |  |  |  | 0.496 | 0.464 | 0.474 | 0.387 | 0.378 | 0.762 | 0.692 | 0.57 | 0.601 | 0.836 |
| NCI-H2023 | 1 | 1.03 | 0.941 | 0.981 | 1.13 | 0.35 | 0.339 | 0.344 | 0.36 | 0.36 | 0.529 | 0.492 | 0.504 | 0.53 | 0.503 |  |  |  |  |  |
| COR-L 105 | 0.875 | 0.935 | 0.876 | 0.804 | 0.864 | 0.353 | 0.349 | 0.376 | 0.376 | 0.333 | 0.472 | 0.393 | 0.44 | 0.384 | 0.391 |  |  |  |  |  |
